System: not listed separately
Assay: Determination of drug-time curve in vivo (serum dihydroartemisinin by LC-MS after intravenous injection)
Conditions: SD rats, single intravenous (caudal vein) injection, dose equivalent to 10 mg/kg artesunate
Experimental: Samples: Artesunate, Compounds 1-4.
Preparation of samples: artesunate was dissolved with 5% NaHCO3 physiological saline to obtain 10 mg/ml colorless pellucid solution; Compound 1 was dissolved with injection physiological saline to prepare a colorless pellucid solution containing equivalently 10 mg/ml artesunate.
Animals: SD rats were purchased from the Animal Center of the Military Medical Science Academy of the PLA, body weight 200±10 g, male, conventionally raised, free diet.
Experimental method: solutions of artesunate and Compound 1 samples were administrated to each rat by intravenous injection in an amount of 0.2 ml (a dose equivalent to 10 mg/kg artesunate). Blood samples were collected at 0 min, 10 min, 20 min, 30 min, 45 min, 1 hr, 1.5 hr, 2 hr, 2.5 hr, 3 hr, 4 hr, 6 hr, 8 hr, 10 hr, respectively, and serum concentration of dihydroartemisinin were measured by LC-MS method.
Experimental Results: See FIG. 1.

Row | Compound | half-life extended in comparison with artesunate
1 | [(Artesunate-)2-Lys-]2-PEG20k [Compound 1] | about 5 times

System: Plasmodium berghei
Assay: Evaluation of anti-malarial effects (murine malaria 4 day inhibition method, infected Kunming mice)
Assay type: in vivo
Conditions: intraperitoneal injection, dose equivalent to 10 mg/kg artesunate, 4 administrations, D4, mean (range)
Experimental: Preparation of animals and pathological models: Kunming mice were purchased from the Animal Center of the Military Medical Science Academy of the PLA, body weight 20±2 g, female, conventionally raised, free diet. The mice were inoculated 1×10^7 plasmodia via intraperitoneal injection on the test day (DO) to infect red blood cells to establish murine malaria infection models.
Dosage regimen: the solutions of artesunate and PEGlyation derivatives thereof were diluted with injection water to a concentration equivalent to 1 mg/ml artesunate, and each mouse was administrated by 0.2 ml intraperitoneal injection (a dose equivalent to 10 mg/kg artesunate). First administration was performed 3 hours after the mice were infected, then administrated once per 24 hours, until the 3rd day (D3) after infection, that was, totally administrated for 4 times. The placebo control group was injected with physiological saline of same volume.
On the 4th day (D4) after administration of 10 mg/kg body weight artesunate and its PEGlyation derivatives, their inhibition rates to Plasmodium berghei were all 80% or more, and there was no significant difference of inhibition rate between the derivatives and artesunate (Table 1).

Row | Compound | inhibition rates to Plasmodium berghei, Mean (column group headed Parasitemia (%))
2 | Artesunate-NH-PEG20k-NH-Artesunate [Compound 4] | 80.8(79.7-87.0) %
3 | mPEG20k-Lys-(Artesunate)2 [Compound 2] | 87.0(79.3-97.4) %
4 | mPEG20k-Lys2-(Artesunate)4 [Compound 3] | 92.1(87.8-95.1) %
5 | C[C@H]1[C@H](OC(=O)CCC(=O)O)O[C@@H]2O[C@@]3(C)CC[C@H]4[C@H](C)CC[C@@H]1[C@@]24OO3 [Artesunate] | 84.0(76.0-94.6) %
6 | [(Artesunate-)2-Lys-]2-PEG20k [Compound 1] | 87.2(82.7-92.7) %

Reference: patent publication US9623111B2, “Pegylated artesunate derivative, pharmaceutical composition and use thereof” (Institute of Pharmacology and Toxicology Academy of …, priority 2012, dated 2017)
